Test results from paper PMC9025560, “A Comparison of Evans Blue and 4-(p-Iodophenyl)butyryl Albumin Binding Moieties on an Integrin αvβ6 Binding Peptide” (Pharmaceutics, 2022).
Where two headings read alike, the source gives them in different places.

How the values were obtained:
mouse serum protein = assay: Mouse serum protein binding by ultrafiltration; type: in vitro ADME; settings: 37 °C
Experimental: Serum protein binding of [^64Cu]1 and [^64Cu]2 was assessed following the previously reported method. Peptides [^64Cu]1 and [^64Cu]2 were evaluated by ultrafiltration using Centrifree Ultrafiltration devices (EMD) according to the manufacturer’s recommendations. Experiments were carried out in triplicate. The Centrifree Ultrafiltration devices were pretreated with PBS containing Tween 20 (5% v/v), followed by triplicate rinses with PBS. An aliquot of each peptide [^64Cu]1 or [^64Cu]2 in PBS (≤25 μL, 20–60 KBq) was thoroughly mixed with 0.5 mL of serum at 37 °C in a microfuge tube. The mixture was incubated at 37 °C for 5 min, and an aliquot (50 μL) was transferred to a tube for γ-counting. The remaining sample was transferred to a Centrifree Ultrafiltration device and centrifuged for 40 min at 1500 (RCF) at ambient temperature (20–24 °C). An aliquot (50 μL) of the filtrate was transferred to a tube for γ-counting. […] Following γ-counting, the protein-bound radioactivity was calculated by subtracting the counts measured in the filtrate aliquot (i.e., not protein-bound) from the counts in the corresponding serum aliquot. The data are expressed as mean ± standard deviation of fraction of radioactivity bound to protein after subtraction of non-specific binding determined in the blank.

[1] = Stability in mouse serum at 37 °C; type: in vitro ADME; settings: mouse, mouse serum, read-out: Stability in mouse serum, % intact
Experimental: For serum stability, mouse serum or human serum (0.5 mL, both purchased from Sigma-Aldrich) was combined with an aliquot of each of the peptides [^64Cu]1 and [^64Cu]2 (≤25 μL, 14.8–22.2 MBq) and incubated at 37 °C. At each time point (1, 4, and 24 h) an aliquot (50–200 μL) was taken, proteins precipitated with ethanol, and removed by pelleting at 1500 (RCF) for 4 min. The ethanol solution was diluted with water (1 mL) and analyzed by RP-HPLC as previously described.

[2] = Biodistribution in mice bearing BxPC-3 xenograft tumors; type: in vivo; settings: female, athymic nu/nu-nude, mouse, in vivo, total radioactivity; for tissue uptake at 4 h: 4 h p.i.; for tissue uptake at 24 h: 24 h p.i.; for tissue uptake at 48 h: 48 h p.i.
Summary of the method: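 Female athymic nu/nu mice bearing subcutaneous BxPC-3 (integrin αvβ6-positive) flank tumors 0.5–1 cm, given [^64Cu]-labelled peptides (3.7–5.55 MBq) i.v. via tail vein. Tissues taken at 4, 24, 48 and 72 h p.i. and γ-counted; decay-corrected uptake reported as % ID/g, mean ± SD.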

[3] = iv, i.v., read-out: Blood uptake
[4] = iv, i.v., read-out: Bone uptake
[5] = iv, i.v., read-out: Brain uptake
[6] = iv, i.v., read-out: BxPC-3 Tumor uptake
[7] = iv, i.v., read-out: Fecal Matter radioactivity
[8] = iv, i.v., read-out: Gall Bladder uptake
[9] = iv, i.v., read-out: Heart uptake
[10] = iv, i.v., read-out: Kidneys uptake
[11] = iv, i.v., read-out: Lg. Intestines uptake
[12] = iv, i.v., read-out: Liver uptake
[13] = iv, i.v., read-out: Lung uptake
[14] = iv, i.v., read-out: Muscle uptake
[15] = iv, i.v., read-out: Pancreas uptake
[16] = iv, i.v., read-out: Skin uptake
[17] = iv, i.v., read-out: Sm. Intestines uptake
[18] = iv, i.v., read-out: Spleen uptake
[19] = iv, i.v., read-out: Stomach uptake
[20] = iv, i.v., read-out: Urine radioactivity

Cc1cc(-c2ccc(NC(=O)CCC(=O)NCCCC[C@H](NC(=O)CN3CCN(CC(=O)O)CCN(CC(=O)O)CCN(CC(=O)O)CC3)C(=O)NCCOCCOCCOCCOCCOCCOCCOCCOCCOCCOCCOCCOCCOCCOCCOCCOCCOCCOCCOCCOCCOCCOCCOCCOCCOCCOCCOCCOCCC(=O)N[C@@H](CC(N)=O)C(=O)N[C@@H](C)C(=O)N[C@H](C(=O)N3CCC[C@H]3C(=O)N[C@@H](CC(N)=O)C(=O)N[C@@H](CC(C)C)C(=O)N[C@@H](CCCNC(=N)N)C(=O)NCC(=O)N[C@@H](CC(=O)O)C(=O)N[C@@H](CC(C)C)C(=O)N[C@@H](CCC(N)=O)C(=O)N[C@H](C(=O)N[C@@H](CC(C)C)C(=O)N[C@@H](C)C(=O)N[C@@H](CCC(N)=O)C(=O)N[C@@H](CCCNC(=N)N)C(=O)N[C@H](C(=O)N[C@@H](C)C(=O)N[C@@H](CCCNC(=N)N)C(=O)N[C@H](C(=O)NCCOCCOCCOCCOCCOCCOCCOCCOCCOCCOCCOCCOCCOCCOCCOCCOCCOCCOCCOCCOCCOCCOCCOCCOCCOCCOCCOCCOCCC(N)=O)[C@@H](C)O)C(C)C)C(C)C)C(C)C)c(C)c2)ccc1N=Nc1ccc2c(S(=O)(=O)O)cc(S(=O)(=O)O)c(N)c2c1O [[^64Cu]1, [^64Cu]Cu DOTA-EB-αvβ6-BP, metal not drawn]
Binding to mouse serum protein (mouse serum protein): 41.9 ± 1.1%
remaining at 1 h ([1]; 1 h): 78%
remaining at 4 h ([1]; 4 h): 58%
remaining at 24 h ([1]; 24 h): 14%
tissue uptake at 4 h [2, 3]: 1.3 ± 0.31 %ID/g
tissue uptake at 4 h [2, 4]: 0.44 ± 0.04 %ID/g
tissue uptake at 4 h [2, 5]: 0.09 ± 0.02 %ID/g
tissue uptake at 4 h [2, 6]: 5.29 ± 0.59 %ID/g
tissue uptake at 4 h [2, 7]: 3.03 ± 0.67 %ID/g
tissue uptake at 4 h [2, 8]: 2.12 ± 0.51 %ID/g
tissue uptake at 4 h [2, 9]: 0.99 ± 0.08 %ID/g
tissue uptake at 4 h [2, 10]: 75.5 ± 7.26 %ID/g
tissue uptake at 4 h [2, 11]: 4.13 ± 0.1 %ID/g
tissue uptake at 4 h [2, 12]: 1.64 ± 0.2 %ID/g
tissue uptake at 4 h [2, 13]: 2.71 ± 0.57 %ID/g
tissue uptake at 4 h [2, 14]: 0.67 ± 0.1 %ID/g
tissue uptake at 4 h [2, 15]: 0.46 ± 0.06 %ID/g
tissue uptake at 4 h [2, 16]: 1.56 ± 0.34 %ID/g
tissue uptake at 4 h [2, 17]: 4.72 ± 0.55 %ID/g
tissue uptake at 4 h [2, 18]: 0.32 ± 0.28 %ID/g
tissue uptake at 4 h [2, 19]: 6.41 ± 0.64 %ID/g
tissue uptake at 4 h [2, 20]: 19.6 ± 10.5 %ID/g
tissue uptake at 24 h [2, 3]: 0.33 ± 0.01 %ID/g
tissue uptake at 24 h [2, 4]: 0.34 ± 0.13 %ID/g
tissue uptake at 24 h [2, 5]: 0.09 ± 0.01 %ID/g
tissue uptake at 24 h [2, 6]: 5.03 ± 0.97 %ID/g
tissue uptake at 24 h [2, 7]: 2.85 ± 0.55 %ID/g
tissue uptake at 24 h [2, 8]: 1.85 ± 0.27 %ID/g
tissue uptake at 24 h [2, 9]: 0.92 ± 0.05 %ID/g
tissue uptake at 24 h [2, 10]: 40.5 ± 7.7 %ID/g
tissue uptake at 24 h [2, 11]: 3.46 ± 0.45 %ID/g
tissue uptake at 24 h [2, 12]: 2.09 ± 0.1 %ID/g
tissue uptake at 24 h [2, 13]: 2.79 ± 1.62 %ID/g
tissue uptake at 24 h [2, 14]: 0.5 ± 0.2 %ID/g
tissue uptake at 24 h [2, 15]: 0.48 ± 0.03 %ID/g
tissue uptake at 24 h [2, 16]: 1.08 ± 0.3 %ID/g
tissue uptake at 24 h [2, 17]: 2.78 ± 0.31 %ID/g
tissue uptake at 24 h [2, 18]: 0.56 ± 0.16 %ID/g
tissue uptake at 24 h [2, 19]: 4.18 ± 0.54 %ID/g
tissue uptake at 24 h [2, 20]: 5.01 ± 0.29 %ID/g
tissue uptake at 48 h [2, 3]: 0.33 ± 0.1 %ID/g
tissue uptake at 48 h [2, 4]: 0.3 ± 0.08 %ID/g
tissue uptake at 48 h [2, 5]: 0.12 ± 0.02 %ID/g
tissue uptake at 48 h [2, 6]: 4 ± 1.51 %ID/g
tissue uptake at 48 h [2, 7]: 2.34 ± 0.89 %ID/g
tissue uptake at 48 h [2, 8]: 1.75 ± 0.61 %ID/g
tissue uptake at 48 h [2, 9]: 1.02 ± 0.17 %ID/g
tissue uptake at 48 h [2, 10]: 26.2 ± 5.89 %ID/g
tissue uptake at 48 h [2, 11]: 2.65 ± 0.05 %ID/g
tissue uptake at 48 h [2, 12]: 2.59 ± 0.51 %ID/g
tissue uptake at 48 h [2, 13]: 2.33 ± 0.32 %ID/g
tissue uptake at 48 h [2, 14]: 0.49 ± 0.07 %ID/g
tissue uptake at 48 h [2, 15]: 0.41 ± 0.2 %ID/g
tissue uptake at 48 h [2, 16]: 1.12 ± 0.18 %ID/g
tissue uptake at 48 h [2, 17]: 1.85 ± 0.07 %ID/g
tissue uptake at 48 h [2, 18]: 0.5 ± 0.18 %ID/g
tissue uptake at 48 h [2, 19]: 3.02 ± 0.52 %ID/g
tissue uptake at 48 h [2, 20]: 3.92 ± 1.05 %ID/g
tissue uptake at 72 h ([2]; iv, 72 h p.i., i.v., read-out: Blood uptake): 0.35 ± 0.08 %ID/g
tissue uptake at 72 h ([2]; iv, 72 h p.i., i.v., read-out: Bone uptake): 0.25 ± 0.13 %ID/g
tissue uptake at 72 h ([2]; iv, 72 h p.i., i.v., read-out: Brain uptake): 0.16 ± 0.04 %ID/g
tissue uptake at 72 h ([2]; iv, 72 h p.i., i.v., read-out: BxPC-3 Tumor uptake): 3.32 ± 0.46 %ID/g
tissue uptake at 72 h ([2]; iv, 72 h p.i., i.v., read-out: Fecal Matter radioactivity): 1.81 ± 0.74 %ID/g
tissue uptake at 72 h ([2]; iv, 72 h p.i., i.v., read-out: Gall Bladder uptake): 1.75 ± 0.65 %ID/g
tissue uptake at 72 h ([2]; iv, 72 h p.i., i.v., read-out: Heart uptake): 1.15 ± 0.2 %ID/g
tissue uptake at 72 h ([2]; iv, 72 h p.i., i.v., read-out: Kidneys uptake): 20 ± 6.91 %ID/g
tissue uptake at 72 h ([2]; iv, 72 h p.i., i.v., read-out: Lg. Intestines uptake): 1.95 ± 0.29 %ID/g
tissue uptake at 72 h ([2]; iv, 72 h p.i., i.v., read-out: Liver uptake): 2.36 ± 0.51 %ID/g
tissue uptake at 72 h ([2]; iv, 72 h p.i., i.v., read-out: Lung uptake): 1.88 ± 0.11 %ID/g
tissue uptake at 72 h ([2]; iv, 72 h p.i., i.v., read-out: Muscle uptake): 0.44 ± 0.12 %ID/g
tissue uptake at 72 h ([2]; iv, 72 h p.i., i.v., read-out: Pancreas uptake): 0.59 ± 0.12 %ID/g
tissue uptake at 72 h ([2]; iv, 72 h p.i., i.v., read-out: Skin uptake): 0.88 ± 0.12 %ID/g
tissue uptake at 72 h ([2]; iv, 72 h p.i., i.v., read-out: Sm. Intestines uptake): 1.38 ± 0.18 %ID/g
tissue uptake at 72 h ([2]; iv, 72 h p.i., i.v., read-out: Spleen uptake): 0.58 ± 0.16 %ID/g
tissue uptake at 72 h ([2]; iv, 72 h p.i., i.v., read-out: Stomach uptake): 2.02 ± 0.16 %ID/g
tissue uptake at 72 h ([2]; iv, 72 h p.i., i.v., read-out: Urine radioactivity): 3.17 ± 1.58 %ID/g
tissue uptake at 72 h ([2]; 72 h, read-out: GI uptake): < 3.2 %ID/g
tissue uptake ([2]; throughout 4–72 h, read-out: Liver uptake throughout): < 3 %ID/g
